The source of these data is patent publication US11358947B2, “Substituted 2-acylamino-cycloalkylthiophene-3-carboxylic acid arylamides as inhibitors of calcium-activated chloride channel TMEM16A” (THE REGENTS OF THE UNIVERSITY OF CALIFORNIA, priority 2017, dated 2022).

Molecules are shown by their SMILES. Several values for one entry are separate records, joined by “and”; a condition that tells them apart may be missing. Equal entries are not always repeated.

A short description of series [1]: In vitro metabolic stability with rat liver microsomes and NADPH. The class given is in vitro ADME. As to conditions: rat liver microsomes + NADPH, 180 min. As for the experimental part: (3B) LC/MS traces showing total ion counts as a function of incubation time.
These compounds were incubated with rat liver microsomes and NADPH, and non-metabolized compounds were quantified by ESI-LCMS. […] It is speculated that Ani-9 could be oxidized at the aryl methyl or N—N bond; or hydrolyzed at the amide or hydrazone linkages.
Compounds (each 10 uM) were incubated for specific time points (2, 5, 15, 30, 60, 180 min) with shaking at 37° C. with rat liver microsomes (1 mg protein/mL, Sigma-Aldrich, St. Louis, Mo.) in potassium phosphate butler (100 mM) containing 1 mM NADPH. The mixture was then chilled on ice, and 0.5 mL of ice-cold ethyl acetate was added. Samples were centrifuged for 15 min at 3000 RPM. The supernatant was evaporated to dryness, and the residue was dissolved in 80 μL of mobile phase (acetonitrile:/water, 3:1, containing 0.1% formic acid) for LC/MS. Reverse-phase HPLC separation was carried out using a Waters C18 column (2.1 mm×100 mm, […]) equipped with a solvent delivery system (Waters model 2690, Milford, Mass.).
A general note: Microsomes from liver hold many membrane-bound enzymes, among them those of drug oxidation.

Series [2] deals with SW-480 cells. As to conditions: several tumor cell lines including SW480, reported; cited from earlier work.
In series [3] the target is T1, TMEM16A (Homo sapiens, UniProt Q5XXA6).
T1 sequence (Q5XXA6 1-986): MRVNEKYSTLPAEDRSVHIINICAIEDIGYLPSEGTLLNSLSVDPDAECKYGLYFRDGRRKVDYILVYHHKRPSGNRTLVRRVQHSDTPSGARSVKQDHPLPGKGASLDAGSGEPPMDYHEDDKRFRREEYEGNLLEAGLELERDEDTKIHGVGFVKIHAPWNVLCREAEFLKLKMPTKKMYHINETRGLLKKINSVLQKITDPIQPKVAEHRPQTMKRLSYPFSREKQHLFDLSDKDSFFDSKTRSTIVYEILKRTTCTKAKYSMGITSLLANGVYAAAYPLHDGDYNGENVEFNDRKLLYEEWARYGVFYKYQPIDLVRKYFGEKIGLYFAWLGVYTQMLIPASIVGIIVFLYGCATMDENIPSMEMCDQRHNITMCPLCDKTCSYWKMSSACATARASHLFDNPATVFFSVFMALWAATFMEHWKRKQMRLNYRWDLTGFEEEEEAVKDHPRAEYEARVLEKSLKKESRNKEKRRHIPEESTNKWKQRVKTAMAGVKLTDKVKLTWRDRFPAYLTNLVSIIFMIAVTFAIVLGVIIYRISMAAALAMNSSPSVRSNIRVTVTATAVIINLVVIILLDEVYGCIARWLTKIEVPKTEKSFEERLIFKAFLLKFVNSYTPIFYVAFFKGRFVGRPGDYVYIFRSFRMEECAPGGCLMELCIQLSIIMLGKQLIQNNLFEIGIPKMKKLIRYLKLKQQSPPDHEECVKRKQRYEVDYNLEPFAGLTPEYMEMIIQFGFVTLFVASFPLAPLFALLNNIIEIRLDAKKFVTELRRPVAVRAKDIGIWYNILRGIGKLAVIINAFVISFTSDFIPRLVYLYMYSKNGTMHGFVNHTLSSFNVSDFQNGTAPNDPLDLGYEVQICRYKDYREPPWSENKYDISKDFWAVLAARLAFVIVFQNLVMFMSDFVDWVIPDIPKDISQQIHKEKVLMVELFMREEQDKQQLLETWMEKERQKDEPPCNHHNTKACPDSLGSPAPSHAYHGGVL
The series is described as follows: TMEM16A functional fluorescence plate reader (FPR) assay, iodide influx in FRT cells with YFP. It counts as cell-based. To be noted: TMEM16A-expressing FRT cells, compound 10 min before iodide/ATP. As for the experimental part: A high-throughput screening assay was previously developed to identify small molecule inhibitors of TMEM16A. […] The assay involved addition of test compounds to the cells for 10 min in a physiological chloride-containing solution, followed by addition of an iodide solution containing ATP. TMEM16A-facilitated iodide influx was determined from the initial time course of decreasing YFP fluorescence.
2-Acylamino-cycloalkylthiophene-3-carboxylic acid arylamides 6aa-6bw were initially evaluated for inhibition of TMEM16A anion channel function using a cell-based functional plate reader assay as reported.
Yields (%) are of the isolated or purified products. IC50 (μM) for inhibition of TMEM16A anion conductance using a fluorescence plate reader (FPR) assay.
Cell lines and culture. Fischer Rat Thyroid (FRT) cells stably co-expressing TMEM16A, TMEM16B and human wild-type CFTR and the halide-sensitive yellow fluorescent protein (YFP)-H148Q were cultured as described. […] For plate reader assays, cells were plated in black 96-well microplates (Corning-Costar Corp., New York, N.Y.) at a density of 20,000 cells per well and assayed 24-48 hours after plating.
(§1) TMEM16A functional assay. TMEM16A functional plate-reader assay was done as previously described. […] Test compounds (0.5 μl in DMSO) were added to each well at specified concentration. […] The initial rate of I− influx following each of the solution additions was computed from fluorescence data by nonlinear regression. TMEM16B activity was assayed similarly as described using FRT cells co-expressing YFP and TMEM16B.

The subject of series [4] is SW-480 cells. The series is described as follows: SW-480 cell proliferation, AlamarBlue after 72 h. The class given is cell-based. As to conditions: for IC50: Homo sapiens, SW480, AlamarBlue after 72 h of drug treatment, read-out: IC50 inhibition of SW-480 cell proliferation. On the procedure: Compounds according to the present disclosure (structures shown in FIG. 5B) were tested for their inhibitory effect on proliferation of SW-480 cell line.
SW-480 cells were cultured on plastic in Leibovitz L15 medium supplemented with 10% fetal bovine serum, 2 mM L-glutamine, 100 units/mL penicillin, and 100 μg/mL streptomycin. The cells were incubated at 37° C. without CO2.
SW-480 cells were plated into black 96-well microplates (Corning-Costar Corp., New York, N.Y.) at 10% seeding. The cells were treated with test compounds dissolved in DMSO in serial dilution while maintaining the final concentration of DMSO at 0.5%. Plated cells were then incubated for 72 h at 37° C. Cell proliferation was quantified using the AlamarBlue assay (Invitrogen, Carlsbad, Calif.) as per the manufacturer's instructions. Data was normalized against untreated control cells that were lysed for 10 minutes using Triton-X100 (0.1% in PBS).
A general note: The colour change of resazurin is a common sign of viable cells or microbes.

For series [5], the target named is T2, TMEM16B (Homo sapiens, UniProt Q9NQ90).
T2 construct: expressed in transfected cells; host or cells: Fischer Rat Thyroid (FRT) cells co-expressing YFP
T2 sequence (Q9NQ90 1-998): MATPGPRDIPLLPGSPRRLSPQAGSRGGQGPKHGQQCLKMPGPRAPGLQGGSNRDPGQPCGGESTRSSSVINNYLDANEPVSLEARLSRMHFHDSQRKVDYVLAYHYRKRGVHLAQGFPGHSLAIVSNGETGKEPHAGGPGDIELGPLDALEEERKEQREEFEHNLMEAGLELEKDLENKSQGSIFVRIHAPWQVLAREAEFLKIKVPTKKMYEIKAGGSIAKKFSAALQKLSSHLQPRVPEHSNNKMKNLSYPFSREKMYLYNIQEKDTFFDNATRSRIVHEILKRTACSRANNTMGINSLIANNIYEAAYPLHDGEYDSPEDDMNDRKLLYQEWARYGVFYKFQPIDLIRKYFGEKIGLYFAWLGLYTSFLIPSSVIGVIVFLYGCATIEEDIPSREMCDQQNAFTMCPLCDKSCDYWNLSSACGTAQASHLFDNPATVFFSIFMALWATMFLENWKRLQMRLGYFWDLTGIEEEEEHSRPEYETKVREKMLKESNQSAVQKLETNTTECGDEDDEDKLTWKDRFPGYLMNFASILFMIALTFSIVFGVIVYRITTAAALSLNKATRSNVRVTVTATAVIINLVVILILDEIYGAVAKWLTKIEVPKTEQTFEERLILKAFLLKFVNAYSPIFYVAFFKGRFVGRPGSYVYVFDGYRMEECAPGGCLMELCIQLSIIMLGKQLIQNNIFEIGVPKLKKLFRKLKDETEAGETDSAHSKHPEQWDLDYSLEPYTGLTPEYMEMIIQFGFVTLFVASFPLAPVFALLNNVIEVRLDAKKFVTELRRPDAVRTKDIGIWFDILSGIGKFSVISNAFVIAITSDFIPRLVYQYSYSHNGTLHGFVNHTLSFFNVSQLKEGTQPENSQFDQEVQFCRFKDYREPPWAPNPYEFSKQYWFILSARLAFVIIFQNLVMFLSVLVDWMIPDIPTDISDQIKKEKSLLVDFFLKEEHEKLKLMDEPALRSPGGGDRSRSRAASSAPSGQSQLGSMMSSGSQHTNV
Kind of series: TMEM16B fluorescence plate reader assay in FRT cells. The class given is cell-based. On the procedure:
(§2) Concentration-dependent inhibition of TMEM16A measured by short-circuit current assay; TMEM16B and non-TMEM16 anion conductance measured using a fluorescence plate reader assay using FRT and HT-29 cells respectively; cell viability measured in FRT null cells.
(§3) We further assayed the compound potency on endogenous non-TMEM16A. Ca^2+-activated Cl^− channel in HT-29 cells.
as §1

The test system of series [6] is FRT null cells. Kind of series: Cytotoxicity by Alamar Blue assay in FRT cells. It counts as cell-based, rat. To be noted: 8 h. As for the experimental part: as §2, §3
Cytotoxicity. FRT cells were cultured overnight in black 96-well Costar microplates and incubated with 5 μM test compounds for 8 h. Cytotoxicity was measured by Alamar Blue assay (Invitrogen, Carlsbad, Calif.) as per the manufacturer's instructions.

The target of series [7] is T1, TMEM16A. Kind of series: Short-circuit current assay in TMEM16A-expressing FRT cells. The class given is cell-based.
Description: Measurements were done in FRT cells expressing TMEM16A.
as §2
Short-circuit current measurement. Short-circuit current measurements were done as described. (See Piechowicz, K. A. et al., J Enzyme Inhib Med Chem 2016, 1-7.) Briefly, Snapwell inserts (Corning Costar, Corning, N.Y.) containing TMEM16A-expressing FRT cells were mounted in Ussing chambers (Physiological instruments, San Diego, Calif.). The hemichambers were filled with 5 ml of HCO3^− buffered solution (basolateral) and half-Cl^− solution (apical), and the basolateral membrane was permeabilized with 250 μg/ml amphotericin B. Solutions were bubbled with 95% O2/5% CO2 and maintained at 37° C., and short-circuit current was measured on a DVC-1000 voltage clamp (World Precision Instruments Inc., Sarasota, Fla.) using Ag/AgCl electrodes and 3 M KCl agar bridges.

For the molecule `COc1ccccc1/C=N/NC(=O)COc1ccc(Cl)cc1C` [Ani-9, reference compound], the “Degradation (in words)” value in series [1] is “near complete degradation”.

Consider `CC(C)(C)C1CCc2c(sc(NC(=O)c3ccco3)c2C(=O)O)C1` (stereo not drawn) [CaCCinh-A01, 6-t-butyl-2-(furan-2-carboxamido)-4,5,6,7-tetrahydrobenzo[b] thiophene-3-carboxylic acid], for which the “Concentrations reported to inhibit proliferation of TMEM16A-expressing tumor cell lines” value in series [2] was 10 to 20 µM.

As to `CCC(=O)Nc1sc2c(c1C(=O)Nc1ccccc1)CCCCC2` [Compound 6ah, 2-Propionylamino-5,6,7,8-tetrahydro-4H-cyclohepta[b]thiophene-3-carboxylic acid phenylamide], the IC50 in series [3] was found to be 1200 nM.

In turn, `O=C(Nc1ccccc1F)c1c(NC(=O)C(F)(F)F)sc2c1CCCCC2` [Compound 6aj, 2-(2,2,2-Trifluoro-acetylamino)-5,6,7,8-tetrahydro-4H-cyclohepta[b]thiophene-3-carboxylic acid (2-fluoro-phenyl)-amide] came in with an IC50 in series [3] of 1300 nM.

As for `Cc1ccc(NC(=O)c2c(NC(=O)C(F)(F)F)sc3c2CCCC3)cc1` [Compound 6aw, 2-(2,2,2-Trifluoro-acetylamino)-4,5,6,7-tetrahydro-benzo[b]thiophene-3-carboxylic acid p-tolylamide], the IC50 in series [3] was 200 to 300 nM and 220 nM.

Regarding `Cc1ccccc1NC(=O)c1c(NC(=O)C(F)(F)Cl)sc2c1CCCCC2` [Compound 6bk, 2-(2-Chloro-2,2-difluoro-acetylamino)-5,6,7,8-tetrahydro-4H-cyclohepta[b]thiophene-3-carboxylic acid o-tolylamide], the IC50 in series [4] was 750 nM; in series [5] it was 400 nM; in series [3], 80 to 180 nM and 180 nM; in series [7], 230 nM. In series [6], the “Cellular survival % at 5 μM” value turned out to be 98%.

Consider `Cc1ccccc1NC(=O)c1c(NC(=O)C(F)(F)I)sc2c1CCCCC2` [Compound 6bn, 2-(2,2-Difluoro-2-iodo-acetylamino)-5,6,7,8-tetrahydro-4H-cyclohepta[b]thiophene-3-carboxylic acid o-tolylamide], for which the figures for the IC50 in series [5], in series [3] and in series [7] were 1400 nM, 600 nM and 730 nM, respectively. Besides, in series [6], the “Cellular survival % at 5 μM” value is listed as 96%.

In series [3], `O=C(Nc1ccccc1)c1c(NC(=O)C(F)(F)Cl)sc2c1CCCCC2` [Compound 6bo, 2-(2-Chloro-2,2-difluoro-acetylamino)-5,6,7,8-tetrahydro-4H-cyclohepta[b]thiophene-3-carboxylic acid phenylamide] showed an IC50 of 925 nM.

As for `O=C(Nc1ccccc1OC(F)(F)F)c1c(NC(=O)C(F)(F)I)sc2c1CCC2` [Compound 6bw, 2-(2,2-Difluoro-2-iodo-acetylamino)-5,6-dihydro-4H-cyclopenta[b]thiophene-3-carboxylic add (2-trifluoromethoxy-phenyl)-amide], the IC50 in series [3] turned out to be 1880 nM.

With `COc1ccc(Cl)cc1NC(=O)c1c(NC(=O)C(F)(F)F)sc2c1CCCCC2` [am1_47, N-(5-chloro-2-methoxyphenyl)-2-(2,2,2-trifluoroacetamido)-5,6,7,8-tetrahydro-4H-cyclohepta[b]thiophene-3-carboxamide], in series [4], the IC50 stood at 470 nM. For the same molecule, the “Potency in inhibiting proliferation of SW480 cells compared with CaCCinh-A01 (in words)” value in series [4] (SW480 cells) is given as “considerably more potent than CaCCinh-A01”.
